# Literature values, collected in PMC12650809, “Evolving Therapeutic Landscape of ROS1-Positive Non-Small Cell Lung Cancer: An Updated Review” (Current Oncology, 2025).
# Where two headings read alike, the source gives them in different places. Marks after values point to notes of the source that are not given here.
# Key:
# ROS1-positive NSCLC [1] = system: ROS1-positive NSCLC
# ROS1-positive NSCLC [2] = system: ROS1-positive NSCLC; design: method as in earlier work; conditions: WCLC 2025 Abstract 4540; for ORR if G2032R Mutation (%): TKI-pretreated patients with G2032R; for IC-ORR (%) / TKI-Pretreated ORR (%) / mPFS (Months): TKI-pretreated patients
# ROS1^L2086F = system: ROS1^L2086F; design: method as in PMID 38070596; conditions: L2086F, ATP-binding pocket
# [3] = system: advanced ROS1-rearranged NSCLC; design: method as in PMID 38197815
# [4] = system: ROS1^G2032R and D2033N mutations; conditions: preclinical, in vitro
# ROS1^G2032R = system: ROS1^G2032R; design: method as in PMID 38070596; conditions: solvent-front substitution
# ROS1-positive NSCLC [5] = system: ROS1-positive NSCLC; remark: listed apart in the source
# ROS1-positive NSCLC [6] = system: ROS1-positive NSCLC; remark: listed apart in the source
# ROS1^G2032R mutation = system: ROS1^G2032R mutation; design: method as in PMID 36511802; conditions: preclinical studies
# wild-type ROS1 = system: wild-type ROS1; design: method as in PMID 36511802; conditions: preclinical studies
# [7] = ROS1 TKI-naïve patients, n = 71
# [8] = previously treated with a ROS1-targeted TKI, n = 56
# [9] = 117 TKI-pretreated patients, WCLC 2025 Abstract 4540
# [10] = TKI-naïve patients, n = 35, preliminary, WCLC 2025 Abstract 4540
# [11] = TKI-naïve patients, preliminary, WCLC 2025 Abstract 4540
# [12] = most common AEs, ref WCLC 2025 Abstract 4540
# [13] = grade ≥ 3, ref WCLC 2025 Abstract 4540
smiles,measurement,setting,value
"C[C@H]1CNC(=O)c2cnn3ccc(nc23)N[C@H](C)c2cc(F)ccc2O1 [Repotrectinib, repotrectinib]",TKI-Naive ORR (%),ROS1-positive NSCLC [1]; TKI-naïve patients,79%
same,mPFS (Months),ROS1-positive NSCLC [1]; TKI-naïve patients,35.7 Months
same,IC-ORR (%),ROS1-positive NSCLC [1]; TKI-naïve patients evaluable for intracranial ORR,89 ^d %
same,ORR if G2032R Mutation (%),ROS1-positive NSCLC [2],59%
same,IC-ORR (%),ROS1-positive NSCLC [2],38%
same,TKI-Pretreated ORR (%),ROS1-positive NSCLC [2],38%
same,mPFS (Months),ROS1-positive NSCLC [2],9.0 Months
same,resistance or activity with L2086F,ROS1^L2086F,cross-resistance
same,treatment discontinuation due to AEs,[3],7%
same,response rate,[3]; 17 patients harboring ROS1^G2032R,59%
same,dizziness,"[3]; AEs, mostly grade 1–2",58%
same,dysgeusia,"[3]; AEs, mostly grade 1–2",50%
same,paresthesia,"[3]; AEs, mostly grade 1–2",30%
same,ORR,[3]; [7],79%
same,median DOR,[3]; [7],34.1 months
same,median PFS,[3]; [7],35.7 months
same,intracranial response rate,"[3]; TKI-naïve, measurable BMs at baseline",89%
same,ORR,[3]; [8],38%
same,median PFS,[3]; [8],9 months
same,inhibitory activity against ROS1^G2032R and D2033N mutations,[4],potent inhibitory activity
same,resistance or sensitivity with ROS1^G2032R,ROS1^G2032R,some sensitivity
same,Notable AEs: dizziness,ROS1-positive NSCLC [5],58%
same,Notable AEs: dysgeusia,ROS1-positive NSCLC [5],50%
same,Notable AEs: paresthesia,ROS1-positive NSCLC [5],30%
same,Discontinuation for AEs (%),ROS1-positive NSCLC [5]; WCLC 2025 Abstract 4540,7%
same,Main Grade ≥ 3 AEs: anemia,ROS1-positive NSCLC [5]; grade ≥ 3,4%
same,Main Grade ≥ 3 AEs: dizziness,ROS1-positive NSCLC [5]; grade ≥ 3,3%
"CCn1ncc2c1-c1cnc(N)c(c1)O[C@H](C)c1cc(F)ccc1-c1nn(C)nc1C2 [Zidesamtinib, zidesamtinib]",12-month DOR rate,ROS1-positive NSCLC [6]; [9],78%
same,ORR,ROS1-positive NSCLC [6]; [9],44%
same,12-month DOR rate,ROS1-positive NSCLC [6]; [10],96%
same,ORR,ROS1-positive NSCLC [6]; [10],89%
same,CNS progression events at data cutoff,ROS1-positive NSCLC [6]; [11],no CNS progression events
same,IC-ORR,ROS1-positive NSCLC [6]; [11],83%
same,intracranial complete responses (number),ROS1-positive NSCLC [6]; [11],four
same,constipation,ROS1-positive NSCLC [6]; [12],17%
same,creatine phosphokinase elevation,ROS1-positive NSCLC [6]; [12],16%
same,dyspnea,ROS1-positive NSCLC [6]; [12],15%
same,fatigue,ROS1-positive NSCLC [6]; [12],16%
same,peripheral edema,ROS1-positive NSCLC [6]; [12],36%
same,treatment discontinuations,"ROS1-positive NSCLC [6]; most common reason: pneumonia, ref WCLC 2025 Abstract 4540",2%
same,dose reductions,ROS1-positive NSCLC [6]; ref WCLC 2025 Abstract 4540,10%
same,IC50,ROS1^G2032R mutation,7.9 nM
same,ORR if G2032R Mutation (%),ROS1-positive NSCLC [2],83%
same,IC-ORR (%),ROS1-positive NSCLC [2],48%
same,TKI-Pretreated ORR (%),ROS1-positive NSCLC [2],44%
same,mPFS (Months),ROS1-positive NSCLC [2],9.7 Months
same,resistance or activity with L2086F,ROS1^L2086F,cross-resistance
same,resistance or sensitivity with ROS1^G2032R,ROS1^G2032R,some sensitivity
same,inhibitory activity,wild-type ROS1,subnanomolar
same,Discontinuation for AEs (%),ROS1-positive NSCLC [5]; WCLC 2025 Abstract 4540,2%
same,Notable AEs: constipation,ROS1-positive NSCLC [5]; WCLC 2025 Abstract 4540,17%
same,Notable AEs: peripheral edema,ROS1-positive NSCLC [5]; WCLC 2025 Abstract 4540,36%
same,Main Grade ≥ 3 AEs: CPK elevation,ROS1-positive NSCLC [5]; [13],"CPK elevation (3%), dyspnea (3%)"
same,Main Grade ≥ 3 AEs: dyspnea,ROS1-positive NSCLC [5]; [13],"CPK elevation (3%), dyspnea (3%)"
same,Notable AEs: CPK elevation,ROS1-positive NSCLC [5]; ref WCLC 2025 Abstract 4540,16%
same,Notable AEs: dyspnea,ROS1-positive NSCLC [5]; ref WCLC 2025 Abstract 4540,15%
same,Notable AEs: fatigue,ROS1-positive NSCLC [5]; ref WCLC 2025 Abstract 4540,16%
